According to BigSolDB 2.1:

COC(=O)[C@H](N)c1ccc(O)cc1
solubility (mole fraction) (in ethanol, 283.15 K): 0.00129
solubility (mole fraction) (in ethanol, 288.13 K): 0.00179
solubility (mole fraction) (in ethanol, 293.15 K): 0.0024
solubility (mole fraction) (in ethanol, 298.17 K): 0.00318
solubility (mole fraction) (in ethanol, 303.15 K): 0.00411
solubility (mole fraction) (in ethanol, 308.2 K): 0.00522
solubility (mole fraction) (in ethanol, 313.15 K): 0.00652
solubility (mole fraction) (in ethanol, 318.1 K): 0.008
solubility (mole fraction) (in ethanol, 323.15 K): 0.00968
solubility (mole fraction) (in ethyl acetate, 283.15 K): 0.000154
solubility (mole fraction) (in ethyl acetate, 288.17 K): 0.00029
solubility (mole fraction) (in ethyl acetate, 293.15 K): 0.000479
solubility (mole fraction) (in ethyl acetate, 298.15 K): 0.000761
solubility (mole fraction) (in ethyl acetate, 303.16 K): 0.00113
solubility (mole fraction) (in ethyl acetate, 308.15 K): 0.00158
solubility (mole fraction) (in ethyl acetate, 313.15 K): 0.00209
solubility (mole fraction) (in ethyl acetate, 318.18 K): 0.00261
solubility (mole fraction) (in ethyl acetate, 323.15 K): 0.00311
solubility (mole fraction) (in isopropanol, 283.15 K): 0.000167
solubility (mole fraction) (in isopropanol, 288.2 K): 0.000327
solubility (mole fraction) (in isopropanol, 293.14 K): 0.000576
solubility (mole fraction) (in isopropanol, 298.15 K): 0.000976
solubility (mole fraction) (in isopropanol, 303.15 K): 0.00163
solubility (mole fraction) (in isopropanol, 308.2 K): 0.00258
solubility (mole fraction) (in isopropanol, 313.2 K): 0.00368
solubility (mole fraction) (in isopropanol, 318.15 K): 0.00517
solubility (mole fraction) (in isopropanol, 323.15 K): 0.00677
solubility (mole fraction) (in isopropyl acetate, 283.17 K): 4.68e-05
solubility (mole fraction) (in isopropyl acetate, 288.15 K): 8.53e-05
solubility (mole fraction) (in isopropyl acetate, 293.14 K): 0.000146
solubility (mole fraction) (in isopropyl acetate, 298.15 K): 0.000237
solubility (mole fraction) (in isopropyl acetate, 303.13 K): 0.00037
solubility (mole fraction) (in isopropyl acetate, 308.15 K): 0.000555
solubility (mole fraction) (in isopropyl acetate, 313.15 K): 0.0008
solubility (mole fraction) (in isopropyl acetate, 318.15 K): 0.00111
solubility (mole fraction) (in isopropyl acetate, 323.15 K): 0.00149
solubility (mole fraction) (in methanol, 283.1 K): 0.00221
solubility (mole fraction) (in methanol, 288.15 K): 0.00273
solubility (mole fraction) (in methanol, 293.24 K): 0.00338
solubility (mole fraction) (in methanol, 298.1 K): 0.00415
solubility (mole fraction) (in methanol, 303.15 K): 0.00505
solubility (mole fraction) (in methanol, 308.2 K): 0.00611
solubility (mole fraction) (in methanol, 313.2 K): 0.00732
solubility (mole fraction) (in methanol, 318.15 K): 0.00872
solubility (mole fraction) (in methanol, 323.2 K): 0.0103
solubility (mole fraction) (in methyl acetate, 283.12 K): 0.000417
solubility (mole fraction) (in methyl acetate, 288.2 K): 0.000578
solubility (mole fraction) (in methyl acetate, 293.17 K): 0.000914
solubility (mole fraction) (in methyl acetate, 298.14 K): 0.00136
solubility (mole fraction) (in methyl acetate, 303.15 K): 0.0019
solubility (mole fraction) (in methyl acetate, 308.15 K): 0.00253
solubility (mole fraction) (in methyl acetate, 313.15 K): 0.0032
solubility (mole fraction) (in methyl acetate, 318.15 K): 0.00385
solubility (mole fraction) (in methyl acetate, 323.15 K): 0.00444
solubility (mole fraction) (in n-butanol, 283.15 K): 0.000489
solubility (mole fraction) (in n-butanol, 288.2 K): 0.000737
solubility (mole fraction) (in n-butanol, 293.17 K): 0.00114
solubility (mole fraction) (in n-butanol, 298.18 K): 0.00164
solubility (mole fraction) (in n-butanol, 303.15 K): 0.00224
solubility (mole fraction) (in n-butanol, 308.2 K): 0.00308
solubility (mole fraction) (in n-butanol, 313.15 K): 0.00418
solubility (mole fraction) (in n-butanol, 318.15 K): 0.00561
solubility (mole fraction) (in n-butanol, 323.15 K): 0.00733
solubility (mole fraction) (in n-butyl acetate, 283.1 K): 5.67e-05
solubility (mole fraction) (in n-butyl acetate, 288.15 K): 8.11e-05
solubility (mole fraction) (in n-butyl acetate, 293.15 K): 0.000116
solubility (mole fraction) (in n-butyl acetate, 298.17 K): 0.000165
solubility (mole fraction) (in n-butyl acetate, 303.15 K): 0.000233
solubility (mole fraction) (in n-butyl acetate, 308.15 K): 0.000326
solubility (mole fraction) (in n-butyl acetate, 313.14 K): 0.000456
solubility (mole fraction) (in n-butyl acetate, 318.15 K): 0.000626
solubility (mole fraction) (in n-butyl acetate, 323.12 K): 0.000873
solubility (mole fraction) (in n-pentanol, 283.14 K): 6.94e-05
solubility (mole fraction) (in n-pentanol, 288.2 K): 0.000156
solubility (mole fraction) (in n-pentanol, 293.15 K): 0.000322
solubility (mole fraction) (in n-pentanol, 298.15 K): 0.000606
solubility (mole fraction) (in n-pentanol, 303.15 K): 0.00107
solubility (mole fraction) (in n-pentanol, 308.14 K): 0.00177
solubility (mole fraction) (in n-pentanol, 313.15 K): 0.00273
solubility (mole fraction) (in n-pentanol, 318.15 K): 0.00399
solubility (mole fraction) (in n-pentanol, 323.15 K): 0.00549
solubility (mole fraction) (in n-propanol, 283.13 K): 0.000939
solubility (mole fraction) (in n-propanol, 288.2 K): 0.00127
solubility (mole fraction) (in n-propanol, 293.15 K): 0.00173
solubility (mole fraction) (in n-propanol, 298.13 K): 0.00226
solubility (mole fraction) (in n-propanol, 303.15 K): 0.00295
solubility (mole fraction) (in n-propanol, 308.15 K): 0.00382
solubility (mole fraction) (in n-propanol, 313.15 K): 0.0049
solubility (mole fraction) (in n-propanol, 318.2 K): 0.00624
solubility (mole fraction) (in n-propanol, 323.15 K): 0.00787
solubility (mole fraction) (in n-propyl acetate, 283.15 K): 6.95e-05
solubility (mole fraction) (in n-propyl acetate, 288.14 K): 0.000135
solubility (mole fraction) (in n-propyl acetate, 293.17 K): 0.000242
solubility (mole fraction) (in n-propyl acetate, 298.2 K): 0.000415
solubility (mole fraction) (in n-propyl acetate, 303.15 K): 0.000663
solubility (mole fraction) (in n-propyl acetate, 308.15 K): 0.00102
solubility (mole fraction) (in n-propyl acetate, 313.15 K): 0.0015
solubility (mole fraction) (in n-propyl acetate, 318.15 K): 0.00203
solubility (mole fraction) (in n-propyl acetate, 323.15 K): 0.00275
solubility (mole fraction) (in water, 283.13 K): 1.9e-05
solubility (mole fraction) (in water, 288.16 K): 2.8e-05
solubility (mole fraction) (in water, 293.15 K): 4.81e-05
solubility (mole fraction) (in water, 298.15 K): 7.86e-05
solubility (mole fraction) (in water, 303.18 K): 0.000123
solubility (mole fraction) (in water, 308.15 K): 0.000177
solubility (mole fraction) (in water, 313.2 K): 0.000232
solubility (mole fraction) (in water, 318.15 K): 0.0003
solubility (mole fraction) (in water, 323.15 K): 0.00037
